# Results: ChEMBL document CHEMBL3862033 (J Med Chem, 2016)
# Molecular target: 5-hydroxytryptamine receptor 6 (Homo sapiens) (UniProt P50406)
# Test: Displacement of [3H]LSD from human 5-HT6 receptor expressed in HEK cell membranes at 10 uM incubated for 90 mins under dark condition by microbeta scintillation counting method relative to control
# Conditions: HEK293
# Sequence of 5-hydroxytryptamine receptor 6 (Homo sapiens) (P50406 whole entry): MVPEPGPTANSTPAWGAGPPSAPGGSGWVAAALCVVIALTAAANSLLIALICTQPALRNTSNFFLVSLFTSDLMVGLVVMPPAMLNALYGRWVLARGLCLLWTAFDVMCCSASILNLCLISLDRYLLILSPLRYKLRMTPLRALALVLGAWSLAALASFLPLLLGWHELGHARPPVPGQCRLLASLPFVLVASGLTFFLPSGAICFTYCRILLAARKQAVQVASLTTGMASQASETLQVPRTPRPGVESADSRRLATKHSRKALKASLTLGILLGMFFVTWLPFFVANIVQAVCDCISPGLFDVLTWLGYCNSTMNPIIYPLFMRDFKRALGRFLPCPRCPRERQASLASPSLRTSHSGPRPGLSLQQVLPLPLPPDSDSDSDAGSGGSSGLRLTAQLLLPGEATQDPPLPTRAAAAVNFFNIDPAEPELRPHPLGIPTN
row,SMILES,inhibition
1,CC(=O)NCCNC(=O)[C@@]12C[C@@H]1[C@@H](n1cnc3c(NC(C4CC4)C4CC4)nc(Cl)nc31)[C@H](O)[C@@H]2O,< 50%

# Molecular target: 5-hydroxytryptamine receptor 1D (Homo sapiens) (UniProt P28221)
# Sequence (P28221 whole entry): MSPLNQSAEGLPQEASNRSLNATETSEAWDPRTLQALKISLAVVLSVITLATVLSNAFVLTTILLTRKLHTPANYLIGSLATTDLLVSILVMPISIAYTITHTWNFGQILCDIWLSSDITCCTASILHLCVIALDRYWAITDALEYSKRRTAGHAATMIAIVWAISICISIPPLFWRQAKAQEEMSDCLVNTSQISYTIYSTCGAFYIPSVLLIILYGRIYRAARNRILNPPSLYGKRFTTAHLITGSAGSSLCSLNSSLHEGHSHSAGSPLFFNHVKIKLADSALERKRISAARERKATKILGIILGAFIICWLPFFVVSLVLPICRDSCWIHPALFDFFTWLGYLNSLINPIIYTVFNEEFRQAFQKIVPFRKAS
# Test: Displacement of [3H]5-CT from human 5-HT1D receptor expressed in HEK-T cell membranes at 10 uM incubated for 90 mins under dark condition by microbeta scintillation counting method relative to control
# Conditions: not given
row,SMILES,inhibition
1,CC(=O)NCCNC(=O)[C@@]12C[C@@H]1[C@@H](n1cnc3c(NC(C4CC4)C4CC4)nc(Cl)nc31)[C@H](O)[C@@H]2O,< 50%

# Molecular target: T1, 5-hydroxytryptamine receptor 2B (Homo sapiens, UniProt P41595)
# T1 sequence (P41595 whole entry): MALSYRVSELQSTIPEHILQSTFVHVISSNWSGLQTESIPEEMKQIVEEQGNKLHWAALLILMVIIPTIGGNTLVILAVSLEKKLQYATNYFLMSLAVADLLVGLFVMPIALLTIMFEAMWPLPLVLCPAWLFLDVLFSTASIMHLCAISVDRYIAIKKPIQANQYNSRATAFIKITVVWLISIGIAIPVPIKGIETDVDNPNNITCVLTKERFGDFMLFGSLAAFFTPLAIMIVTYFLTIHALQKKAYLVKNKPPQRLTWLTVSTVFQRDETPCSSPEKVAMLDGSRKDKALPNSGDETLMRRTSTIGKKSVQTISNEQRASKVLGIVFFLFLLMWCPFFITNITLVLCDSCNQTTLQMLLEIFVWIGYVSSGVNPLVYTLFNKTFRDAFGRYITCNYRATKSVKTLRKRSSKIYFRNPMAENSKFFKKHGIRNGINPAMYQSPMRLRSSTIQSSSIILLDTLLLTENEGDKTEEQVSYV
# Test: not given
# Conditions: HEK293, at 10 µM
row,SMILES,inhibition
1,CC(=O)NCCNC(=O)[C@@]12C[C@@H]1[C@@H](n1cnc3c(NC(C4CC4)C4CC4)nc(Cl)nc31)[C@H](O)[C@@H]2O,> 50%

# Molecular target: 5-hydroxytryptamine receptor 5A (Homo sapiens) (UniProt P47898)
# Sequence (P47898 whole entry): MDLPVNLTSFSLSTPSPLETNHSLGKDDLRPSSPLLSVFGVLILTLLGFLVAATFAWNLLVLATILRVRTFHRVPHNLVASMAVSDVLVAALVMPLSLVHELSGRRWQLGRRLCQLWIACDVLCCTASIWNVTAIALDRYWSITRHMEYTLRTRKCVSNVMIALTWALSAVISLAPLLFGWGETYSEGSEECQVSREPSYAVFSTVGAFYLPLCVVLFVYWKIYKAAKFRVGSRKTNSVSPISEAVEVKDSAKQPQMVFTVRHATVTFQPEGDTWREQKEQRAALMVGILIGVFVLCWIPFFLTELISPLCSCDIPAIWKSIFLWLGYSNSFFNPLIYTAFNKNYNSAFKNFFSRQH
# Test: Displacement of [3H]LSD from human 5-HT5A receptor expressed in Flp-In-CHO cell membranes incubated for 90 mins under dark condition by microbeta scintillation counting method relative to control
# Parameters: concentration or dose not given beside the values
# Conditions: not given
row,SMILES,inhibition
1,CC(=O)NCCNC(=O)[C@@]12C[C@@H]1[C@@H](n1cnc3c(NC(C4CC4)C4CC4)nc(Cl)nc31)[C@H](O)[C@@H]2O,< 50%

# Molecular target: T1, 5-hydroxytryptamine receptor 2B
# Test: biochemical
# Assay type: cell-based, HEK293
# Conditions: not given
row,SMILES,Ki
1,CC(=O)NCCNC(=O)[C@@]12C[C@@H]1[C@@H](n1cnc3c(NC(C4CC4)C4CC4)nc(Cl)nc31)[C@H](O)[C@@H]2O,332 nM

# Molecular target: T2, 5-hydroxytryptamine receptor 2A (Homo sapiens, UniProt P28223)
# T2 sequence (P28223 whole entry): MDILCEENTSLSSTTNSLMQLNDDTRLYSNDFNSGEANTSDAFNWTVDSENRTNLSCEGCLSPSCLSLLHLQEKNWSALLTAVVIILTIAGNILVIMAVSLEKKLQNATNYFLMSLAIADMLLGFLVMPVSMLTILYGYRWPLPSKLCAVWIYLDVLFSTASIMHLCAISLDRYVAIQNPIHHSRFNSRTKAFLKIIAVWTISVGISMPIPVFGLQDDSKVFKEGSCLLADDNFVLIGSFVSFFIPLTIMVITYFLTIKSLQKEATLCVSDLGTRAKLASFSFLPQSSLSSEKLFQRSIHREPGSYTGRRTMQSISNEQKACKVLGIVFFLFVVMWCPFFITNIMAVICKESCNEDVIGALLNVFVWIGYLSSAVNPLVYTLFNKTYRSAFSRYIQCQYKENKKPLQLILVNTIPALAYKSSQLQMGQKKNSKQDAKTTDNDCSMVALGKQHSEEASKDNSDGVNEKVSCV
# Test: Displacement of [3H]ketanserin from human 5-HT2A receptor expressed in HEK-T cell membranes at 10 uM incubated for 90 mins under dark condition by microbeta scintillation counting method relative to control
# Conditions: not given
row,SMILES,inhibition
1,CC(=O)NCCNC(=O)[C@@]12C[C@@H]1[C@@H](n1cnc3c(NC(C4CC4)C4CC4)nc(Cl)nc31)[C@H](O)[C@@H]2O,< 10%

# Molecular target: T2, 5-hydroxytryptamine receptor 2A
# Test: Displacement of [3H]ketanserin from human 5-HT2A receptor expressed in HEK-T cell membranes incubated for 90 mins under dark condition by microbeta scintillation counting method
# Conditions: not given
row,SMILES,Ki
1,CC(=O)NCCNC(=O)[C@@]12C[C@@H]1[C@@H](n1cnc3c(NC(C4CC4)C4CC4)nc(Cl)nc31)[C@H](O)[C@@H]2O,> 10000 nM

# Molecular target: 5-hydroxytryptamine receptor 1B (Homo sapiens) (UniProt P28222)
# Sequence (P28222 whole entry): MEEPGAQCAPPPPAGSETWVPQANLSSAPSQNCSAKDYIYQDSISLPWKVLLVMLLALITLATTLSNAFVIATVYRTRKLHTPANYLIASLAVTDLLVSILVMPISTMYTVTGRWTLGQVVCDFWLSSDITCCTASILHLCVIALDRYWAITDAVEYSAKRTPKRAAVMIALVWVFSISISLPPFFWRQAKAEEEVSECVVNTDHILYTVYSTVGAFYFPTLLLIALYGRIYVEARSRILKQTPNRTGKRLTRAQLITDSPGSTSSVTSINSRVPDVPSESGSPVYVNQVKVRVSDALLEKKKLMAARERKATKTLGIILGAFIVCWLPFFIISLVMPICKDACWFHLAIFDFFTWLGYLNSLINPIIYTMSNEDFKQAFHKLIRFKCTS
# Test: Displacement of [3H]5-CT from human 5-HT1BR expressed in HEK cell membranes at 10 uM incubated for 90 mins under dark condition by microbeta scintillation counting method relative to control
# Conditions: HEK293
row,SMILES,inhibition
1,CC(=O)NCCNC(=O)[C@@]12C[C@@H]1[C@@H](n1cnc3c(NC(C4CC4)C4CC4)nc(Cl)nc31)[C@H](O)[C@@H]2O,< 50%

# Molecular target: 5-hydroxytryptamine receptor 1E (Homo sapiens) (UniProt P28566)
# Sequence (P28566 whole entry): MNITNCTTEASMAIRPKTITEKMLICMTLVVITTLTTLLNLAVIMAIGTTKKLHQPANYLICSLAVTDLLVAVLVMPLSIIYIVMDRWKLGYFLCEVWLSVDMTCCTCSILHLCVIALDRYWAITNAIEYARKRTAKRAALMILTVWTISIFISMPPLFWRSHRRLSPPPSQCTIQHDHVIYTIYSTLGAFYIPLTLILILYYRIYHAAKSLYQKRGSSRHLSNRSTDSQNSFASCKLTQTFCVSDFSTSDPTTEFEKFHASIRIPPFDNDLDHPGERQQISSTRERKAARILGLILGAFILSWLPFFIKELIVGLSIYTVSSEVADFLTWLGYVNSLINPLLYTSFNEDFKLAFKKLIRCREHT
# Test: Displacement of [3H]5-HT from human 5-HT1E receptor expressed in HEK cell membranes at 10 uM incubated for 90 mins under dark condition by microbeta scintillation counting method relative to control
# Conditions: HEK293
row,SMILES,inhibition
1,CC(=O)NCCNC(=O)[C@@]12C[C@@H]1[C@@H](n1cnc3c(NC(C4CC4)C4CC4)nc(Cl)nc31)[C@H](O)[C@@H]2O,< 50%

# Molecular target: 5-hydroxytryptamine receptor 7 (Homo sapiens) (UniProt P34969)
# Sequence (P34969 whole entry): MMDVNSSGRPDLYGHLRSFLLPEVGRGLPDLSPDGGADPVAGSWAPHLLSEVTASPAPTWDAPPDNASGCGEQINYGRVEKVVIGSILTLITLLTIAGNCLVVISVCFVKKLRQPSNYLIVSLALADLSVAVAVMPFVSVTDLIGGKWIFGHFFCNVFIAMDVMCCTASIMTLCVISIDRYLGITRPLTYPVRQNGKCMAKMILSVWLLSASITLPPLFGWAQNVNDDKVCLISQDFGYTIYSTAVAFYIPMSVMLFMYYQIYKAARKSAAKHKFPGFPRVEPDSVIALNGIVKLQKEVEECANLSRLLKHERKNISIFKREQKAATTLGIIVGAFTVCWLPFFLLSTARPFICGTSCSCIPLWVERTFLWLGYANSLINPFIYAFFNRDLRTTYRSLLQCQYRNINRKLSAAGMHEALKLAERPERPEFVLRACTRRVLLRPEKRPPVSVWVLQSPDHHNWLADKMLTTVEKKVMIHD
# Test: Displacement of [3H]LSD from human 5-HT7A receptor expressed in HEK cell membranes at 10 uM incubated for 90 mins under dark condition by microbeta scintillation counting method relative to control
# Conditions: HEK293
row,SMILES,inhibition
1,CC(=O)NCCNC(=O)[C@@]12C[C@@H]1[C@@H](n1cnc3c(NC(C4CC4)C4CC4)nc(Cl)nc31)[C@H](O)[C@@H]2O,< 50%

# Molecular target: T3, 5-hydroxytryptamine receptor 2C (Homo sapiens) (UniProt P28335)
# T3 sequence (whole entry): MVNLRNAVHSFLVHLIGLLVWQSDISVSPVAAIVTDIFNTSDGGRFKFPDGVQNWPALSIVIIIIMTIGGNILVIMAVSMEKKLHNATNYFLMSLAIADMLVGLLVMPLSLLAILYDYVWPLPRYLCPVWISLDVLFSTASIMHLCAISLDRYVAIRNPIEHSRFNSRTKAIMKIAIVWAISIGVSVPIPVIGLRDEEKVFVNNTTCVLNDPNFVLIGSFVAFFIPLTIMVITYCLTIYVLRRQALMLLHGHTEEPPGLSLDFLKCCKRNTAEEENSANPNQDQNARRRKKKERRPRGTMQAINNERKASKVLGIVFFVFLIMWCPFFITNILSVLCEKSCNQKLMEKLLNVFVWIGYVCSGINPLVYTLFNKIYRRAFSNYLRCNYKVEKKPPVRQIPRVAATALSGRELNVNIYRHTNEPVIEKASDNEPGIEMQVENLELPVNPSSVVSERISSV
# Test: Displacement of [3H]mesulergine from human 5-HT2CR expressed in Flp-In HEK cell membranes at 10 uM incubated for 90 mins under dark condition by microbeta scintillation counting method relative to control
# Conditions: HEK293
row,SMILES,inhibition
1,CC(=O)NCCNC(=O)[C@@]12C[C@@H]1[C@@H](n1cnc3c(NC(C4CC4)C4CC4)nc(Cl)nc31)[C@H](O)[C@@H]2O,> 50%

# Molecular target: T4, 5-hydroxytryptamine receptor 3A (Homo sapiens) (UniProt P46098)
# T4 sequence (whole entry): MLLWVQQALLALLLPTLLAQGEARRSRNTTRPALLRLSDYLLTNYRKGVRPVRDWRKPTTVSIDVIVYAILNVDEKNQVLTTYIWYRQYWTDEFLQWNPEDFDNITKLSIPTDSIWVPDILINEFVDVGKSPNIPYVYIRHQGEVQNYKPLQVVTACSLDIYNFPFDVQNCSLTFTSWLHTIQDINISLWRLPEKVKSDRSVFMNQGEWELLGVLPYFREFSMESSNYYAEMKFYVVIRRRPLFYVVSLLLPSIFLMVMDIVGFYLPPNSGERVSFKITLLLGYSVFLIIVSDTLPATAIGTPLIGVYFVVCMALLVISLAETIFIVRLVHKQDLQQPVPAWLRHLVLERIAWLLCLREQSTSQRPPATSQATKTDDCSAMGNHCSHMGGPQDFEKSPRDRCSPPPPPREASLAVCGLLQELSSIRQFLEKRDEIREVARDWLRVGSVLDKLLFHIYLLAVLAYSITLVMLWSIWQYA
# Test: Displacement of [3H]GR65630 from human 5-HT3 receptor expressed in HEK-T cell membranes at 10 uM incubated for 90 mins under dark condition by microbeta scintillation counting method relative to control
# Conditions: not given
row,SMILES,inhibition
1,CC(=O)NCCNC(=O)[C@@]12C[C@@H]1[C@@H](n1cnc3c(NC(C4CC4)C4CC4)nc(Cl)nc31)[C@H](O)[C@@H]2O,< 50%

# Molecular target: T5, Adenosine receptor A3 (Homo sapiens, UniProt P0DMS8)
# T5 sequence (P0DMS8 whole entry): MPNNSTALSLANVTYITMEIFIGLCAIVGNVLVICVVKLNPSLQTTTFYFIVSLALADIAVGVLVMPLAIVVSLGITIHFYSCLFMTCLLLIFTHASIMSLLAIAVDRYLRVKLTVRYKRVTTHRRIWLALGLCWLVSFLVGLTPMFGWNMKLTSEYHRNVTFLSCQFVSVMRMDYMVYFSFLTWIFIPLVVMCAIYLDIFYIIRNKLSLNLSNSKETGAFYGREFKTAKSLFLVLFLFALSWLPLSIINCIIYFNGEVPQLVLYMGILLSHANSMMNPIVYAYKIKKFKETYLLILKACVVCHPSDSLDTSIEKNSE
# Test: Displacement of [125l]N 6-(4-amino-3-iodobenzyl)adenosine-5'-N-methyluronamide from recombinant human A3AR expressed in CHO cell membranes after 60 mins by gamma counting method
# Conditions: not given
row,SMILES,Ki
1,CC(=O)NCCNC(=O)[C@@]12C[C@@H]1[C@@H](n1cnc3c(NC(C4CC4)C4CC4)nc(Cl)nc31)[C@H](O)[C@@H]2O,1650 nM

# Molecular target: T6, 5-hydroxytryptamine receptor 1A (Homo sapiens) (UniProt P08908)
# T6 sequence (whole entry): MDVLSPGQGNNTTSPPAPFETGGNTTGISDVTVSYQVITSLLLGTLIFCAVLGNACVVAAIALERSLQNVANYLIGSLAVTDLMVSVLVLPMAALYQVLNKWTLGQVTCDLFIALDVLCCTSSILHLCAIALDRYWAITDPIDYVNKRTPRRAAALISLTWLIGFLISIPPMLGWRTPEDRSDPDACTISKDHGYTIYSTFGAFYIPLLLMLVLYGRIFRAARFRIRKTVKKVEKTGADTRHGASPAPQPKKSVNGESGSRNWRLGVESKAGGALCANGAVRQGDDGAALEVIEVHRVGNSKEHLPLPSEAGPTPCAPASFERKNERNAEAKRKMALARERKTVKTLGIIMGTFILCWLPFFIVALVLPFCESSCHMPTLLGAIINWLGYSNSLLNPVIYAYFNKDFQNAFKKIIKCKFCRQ
# Test: Displacement of [3H]WAY100635 from human 5-HT1AR expressed in CHO cell membranes at 10 uM incubated for 90 mins under dark condition by microbeta scintillation counting method relative to control
# Conditions: not given
row,SMILES,inhibition
1,CC(=O)NCCNC(=O)[C@@]12C[C@@H]1[C@@H](n1cnc3c(NC(C4CC4)C4CC4)nc(Cl)nc31)[C@H](O)[C@@H]2O,< 50%

# Molecular target: Adenosine receptor A2a (Homo sapiens, UniProt P29274)
# Sequence (P29274 whole entry): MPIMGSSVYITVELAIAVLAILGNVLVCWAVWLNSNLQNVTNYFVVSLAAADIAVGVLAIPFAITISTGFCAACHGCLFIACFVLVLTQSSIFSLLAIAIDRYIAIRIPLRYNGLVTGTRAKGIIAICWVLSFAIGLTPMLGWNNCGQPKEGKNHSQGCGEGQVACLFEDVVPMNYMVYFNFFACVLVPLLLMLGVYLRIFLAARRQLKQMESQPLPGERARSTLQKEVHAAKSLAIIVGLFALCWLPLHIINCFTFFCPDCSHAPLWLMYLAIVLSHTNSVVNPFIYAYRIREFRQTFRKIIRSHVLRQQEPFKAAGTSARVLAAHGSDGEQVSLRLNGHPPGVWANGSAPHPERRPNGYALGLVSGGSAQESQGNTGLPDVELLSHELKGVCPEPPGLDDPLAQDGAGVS
# Test: Displacement of [3 H]2-[p-(2-carboxyethyl)phenyl-ethylamino]-5'-N-ethylcarboxamidoadenosine from recombinant human adenosine receptor A2A expressed in HEK293 cell membranes at 10 uM after 60 mins by liquid scintillation counting method relative to control
# Conditions: not given
row,SMILES,inhibition
1,CC(=O)NCCNC(=O)[C@@]12C[C@@H]1[C@@H](n1cnc3c(NC(C4CC4)C4CC4)nc(Cl)nc31)[C@H](O)[C@@H]2O,20%

# Molecular target: 5-hydroxytryptamine receptor 4 (Homo sapiens) (UniProt Q13639)
# Sequence (Q13639 whole entry): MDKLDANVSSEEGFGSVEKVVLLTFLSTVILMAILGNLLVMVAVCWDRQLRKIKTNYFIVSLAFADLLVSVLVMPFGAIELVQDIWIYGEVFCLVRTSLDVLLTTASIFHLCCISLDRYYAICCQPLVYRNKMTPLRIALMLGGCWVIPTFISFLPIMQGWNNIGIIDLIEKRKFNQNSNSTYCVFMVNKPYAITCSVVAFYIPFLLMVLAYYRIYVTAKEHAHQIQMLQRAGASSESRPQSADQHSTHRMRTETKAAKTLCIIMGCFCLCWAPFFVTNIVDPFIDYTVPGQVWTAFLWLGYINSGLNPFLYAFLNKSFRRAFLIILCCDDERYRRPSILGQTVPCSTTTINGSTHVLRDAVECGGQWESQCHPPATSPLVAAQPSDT
# Test: Displacement of [3H]GR113808 from human 5-HT4 receptor at 10 uM incubated for 90 mins under dark condition by microbeta scintillation counting method relative to control
# Conditions: not given
row,SMILES,inhibition
1,CC(=O)NCCNC(=O)[C@@]12C[C@@H]1[C@@H](n1cnc3c(NC(C4CC4)C4CC4)nc(Cl)nc31)[C@H](O)[C@@H]2O,< 50%

# Molecular target: T7, Adenosine receptor A1 (Homo sapiens, UniProt P30542)
# T7 sequence (P30542 whole entry): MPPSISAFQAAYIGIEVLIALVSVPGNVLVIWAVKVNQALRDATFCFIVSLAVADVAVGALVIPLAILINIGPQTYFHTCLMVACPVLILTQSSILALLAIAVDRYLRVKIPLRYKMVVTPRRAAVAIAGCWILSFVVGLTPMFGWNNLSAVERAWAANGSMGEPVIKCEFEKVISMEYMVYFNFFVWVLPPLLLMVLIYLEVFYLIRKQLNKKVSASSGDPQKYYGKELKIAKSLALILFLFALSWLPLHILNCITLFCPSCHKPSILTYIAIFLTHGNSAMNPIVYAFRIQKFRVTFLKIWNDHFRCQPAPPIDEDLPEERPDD
# Test: Displacement of [3H]N6-phenylisopropyladenosine from recombinant human A1AR expressed in CHO cell membranes after 60 mins by liquid scintillation counting method
# Conditions: not given
row,SMILES,Ki
1,CC(=O)NCCNC(=O)[C@@]12C[C@@H]1[C@@H](n1cnc3c(NC(C4CC4)C4CC4)nc(Cl)nc31)[C@H](O)[C@@H]2O,397 nM

# Molecular target: T8, 5-hydroxytryptamine receptor 2C (Homo sapiens, UniProt P28335)
# T8 sequence (P28335 whole entry): T3 sequence (whole entry)
# Test: Displacement of [3H]mesulergine from human 5-HT2CR expressed in Flp-In HEK cell membranes incubated for 90 mins under dark condition by microbeta scintillation counting method
# Parameters: species or system HEK293
# Conditions: not given
row,SMILES,Ki
1,CC(=O)NCCNC(=O)[C@@]12C[C@@H]1[C@@H](n1cnc3c(NC(C4CC4)C4CC4)nc(Cl)nc31)[C@H](O)[C@@H]2O,1700 nM
